The record followed here is patent publication US20070203215A1, “Methods & Compositions For Enhancing Pharmaceutical Treatments” (Taiji Biomedical, Inc., priority 1999, published 2007).

The conditions of data set [1]: mouse, in vivo. The protocol:
Non-tumor bearing athymic mice were treated with the compound of Formula 2 and (or) paclitaxel as described.

For data set [2], the system named is CEM/VLB1000. As to the kind of experiment: Reversal of MDR in P-gp-expressing cell line. Particulars: Homo sapiens, CEM/VLB1000 lymphoma, ± SD. It is filed as cell-based. As for the experimental part:
(§1) Cell proliferation IC50s and MDR reversal EC50s were determined from 3-day dose-response curves carried out in triplicate in 96-well plates essentially as described by Monks et al. (J. Natl. Cancer Inst., 83:757-66, 1991). Cells were plated in standard growth medium at 2.5 or 5.0×10^4 per well (CCRF-CEM and CEM/VLB1000 respectively) or 5×10^3 per well (all other cell lines) in a final volume of 100 μl. After a 2 h incubation for non-adherent cells and overnight incubation for adherent cells, the initial cell density was determined by fluorescence readout of Alamar Blue metabolism. The compound of Formula 2, cytotoxic agents, or compound vehicles were added to duplicate plates and the incubation was continued for an additional 72 h. Final cell density was determined with Alamar Blue. In some experiments, a standard endpoint assay was used without analysis of initial cell density with Alamar Blue. Similar results were obtained with the two assays. EC50s were derived by nonlinear regression analysis assuming a sigmoidal dose-response using GraphPad Prism Software (San Diego, Calif.). Proliferation assays capable of measuring both cytostatic and cytotoxic responses were carried out as described herein with 15 non-transformed and transformed cell lines, including primary fibroblasts, non-transformed smooth muscle, leukemia, breast, colon, ovarian and uterine carcinoma cells (±P-gp expression). Although the compound of Formula 2 reversed P-gp-mediated MDR in the low nanomolar concentration range, the compound was non-cytotoxic by itself at doses up to 100 μM in all cell lines. […] IC50s for non-specific cytotoxicity were similar in matched cell lines plus and minus P-gp expression. […] If it were, some consistent degree of resistance would be expected in P-gp expressing cells.

In data set [3] the test system is HCT-15. As to the kind of experiment: Reversal of MDR in P-gp-expressing cell line. The format is cell-based. To be noted: Homo sapiens; HCT-15 colorectal carcinoma; read-out: Formula 2 compound EC50, reversal of Paclitaxel resistance. The protocol:
as §1

Data set [4] has as its system MCF-7/ADR. As to the kind of experiment: Reversal of MDR in P-gp-expressing cell line. The format is cell-based. Particulars: Homo sapiens, NCI/ADR-RES, MCF-7/ADR breast, ± SD. The protocol: as §1
Data set [5] has as its system MES-SA/DX5. As to the kind of experiment: Reversal of MDR in P-gp-expressing cell line. The format is cell-based. To be noted: Homo sapiens, MES-SA/DX5 uterine, ± SD. The protocol:
as §1

For data set [6], the system named is SK/VLB1000. The data set can be described thus: Reversal of MDR in P-gp-expressing cell line. It is filed as cell-based. Particulars: Homo sapiens, SK/VLB1000 ovarian. The protocol:
as §1

The subject of data set [7] is MDA/LCC6 cells. The data set can be described thus: Effect on paclitaxel IC50 in non-P-gp-expressing cells. To be noted: breast carcinoma cells that do not express P-gp, FIG. 1. The format is cell-based, human. The protocol:
The compound of Formula 2 was able to reverse resistance to all classes of P-gp substrates in a wide variety of tumor cell types with EC50s in the low nM range (Table 2). Similar results were obtained with etoposide in several models. Complete reversal of MDR was typically seen with Formula 2 doses between 0.25 and 1.0 μM. Examples with cells expressing extremely high levels of P-gp as a result of drug selection (CEM/VLB1000), moderate levels of P-gp from gene transduction (MDA/LCC6 ^MDR1), and low (intrinsic) levels of P-gp (HCT-15) are illustrated in Table 2. The compound of Formula 2 had no effect on doxorubicin or paclitaxel IC50s in non-P-gp-expressing CCRF-CEM and MDA/LCC6 cells, respectively (FIG. 1, for MDA/LCC6 cells).
Cell proliferation IC50s and MDR reversal EC50s were determined from 3-day dose-response curves carried out in triplicate in 96-well plates essentially as described by Monks et al. (J. Natl. Cancer Inst., 83:757-66, 1991). Cells were plated in standard growth medium at 2.5 or 5.0×10^4 per well (CCRF-CEM and CEM/VLB1000 respectively) or 5×10^3 per well (all other cell lines) in a final volume of 100 μl. After a 2 h incubation for non-adherent cells and overnight incubation for adherent cells, the initial cell density was determined by fluorescence readout of Alamar Blue metabolism. […] Final cell density was determined with Alamar Blue. […]

Data set [8] concerns CEM/VLB1000. The data set can be described thus: Cell proliferation assay. It is filed as cell-based. Particulars: Homo sapiens; Lymphoma CEM/VLB1000, P-gp Pos; read-out: Formula 2 compound IC50 (inhibition of growth). As for the experimental part: as §1
In data set [9] the test system is HT-29. The data set can be described thus: Cell proliferation assay. The format is cell-based. To be noted: Homo sapiens; Colorectal carcinoma HT-29, P-gp Neg; read-out: Formula 2 compound IC50 (inhibition of growth). As for the experimental part:
as §1

Data set [10] deals with 15 non-transformed and transformed cell lines. As to the kind of experiment: Proliferation assays, 15 non-transformed and transformed cell lines (panel statements). To be noted: for IC50: Homo sapiens, 15 cell lines. The format is cell-based, human. The protocol: as §1
The target in data set [11] is human CYP3A4 (Homo sapiens, UniProt P08684). As to the kind of experiment: Inhibition of CYP3A4-mediated paclitaxel metabolism. It is filed as in vitro ADME. From the text: (§2) Two enzymes primarily responsible for metabolism of paclitaxel are P450 CYP3A4 and CYP2C8. Some P-gp inhibitors are also metabolized by P450 CYP 3A4, leading to inhibition of paclitaxel metabolism. This may contribute to PK interactions with paclitaxel.

Data set [12] has as its target CYP2C8 (Homo sapiens, UniProt P10632). The data set can be described thus: Metabolism by P450 CYP2C8. It is filed as in vitro ADME.
Description: as §2

Where [13] appears, read: read-out: Formula 2 compound EC50, reversal of Doxorubicin resistance.
Where [14] appears, read: read-out: Formula 2 compound EC50, reversal of Vinblastine resistance.
Setting [15] is: read-out: Formula 2 compound EC50, reversal of Paclitaxel resistance.

The structures appear in SMILES notation. Like-named read-outs stand apart in the source and are kept apart here.

Chain of human CYP3A4 (P08684 whole entry): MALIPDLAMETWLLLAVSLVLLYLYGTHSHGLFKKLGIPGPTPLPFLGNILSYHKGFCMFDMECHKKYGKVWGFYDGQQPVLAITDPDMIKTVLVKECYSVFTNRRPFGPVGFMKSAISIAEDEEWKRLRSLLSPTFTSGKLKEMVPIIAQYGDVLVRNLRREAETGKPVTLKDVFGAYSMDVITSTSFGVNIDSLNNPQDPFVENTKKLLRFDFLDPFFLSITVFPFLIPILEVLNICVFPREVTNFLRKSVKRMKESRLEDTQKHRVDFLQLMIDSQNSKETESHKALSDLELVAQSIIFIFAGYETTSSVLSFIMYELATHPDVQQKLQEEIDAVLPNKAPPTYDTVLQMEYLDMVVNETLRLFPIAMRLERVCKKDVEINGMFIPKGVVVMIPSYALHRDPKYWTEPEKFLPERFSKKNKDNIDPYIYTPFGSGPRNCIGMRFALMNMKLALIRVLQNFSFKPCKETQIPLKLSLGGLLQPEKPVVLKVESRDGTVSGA
Chain of CYP2C8 (P10632 whole entry): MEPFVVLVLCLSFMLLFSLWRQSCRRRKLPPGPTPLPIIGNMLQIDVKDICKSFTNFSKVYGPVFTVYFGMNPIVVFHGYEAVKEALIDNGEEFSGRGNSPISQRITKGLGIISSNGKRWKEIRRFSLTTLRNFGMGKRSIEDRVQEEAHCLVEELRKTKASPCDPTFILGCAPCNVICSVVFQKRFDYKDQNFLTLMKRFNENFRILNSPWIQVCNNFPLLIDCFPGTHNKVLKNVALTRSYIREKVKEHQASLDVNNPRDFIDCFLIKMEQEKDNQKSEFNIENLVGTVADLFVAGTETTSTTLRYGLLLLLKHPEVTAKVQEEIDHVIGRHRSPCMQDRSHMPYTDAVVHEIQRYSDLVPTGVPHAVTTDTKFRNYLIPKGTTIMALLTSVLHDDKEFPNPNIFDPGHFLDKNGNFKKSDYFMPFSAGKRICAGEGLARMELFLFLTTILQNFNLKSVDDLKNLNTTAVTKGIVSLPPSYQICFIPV

For the compound `CCOC/C=C/c1ccc(-c2nc(-c3ccc(NC(C)C)cc3)c(-c3ccc(NC(C)C)cc3)[nH]2)cc1` [Formula 2 compound], the “Effect on paclitaxel toxicity” value in data set [1] is “decreased paclitaxel toxicity”. Also, the EC50 was found to be 90 ± 60 nM in [2] (setting [13]); 70 ± 10 nM in data set [2] (setting [14]); 1.6 nM in [3]; 38 ± 6 nM in data set [4] (setting [13]); 31 ± 4 nM in data set [4] (setting [15]); 20 ± 10 nM in [4] (setting [14]). Further, the EC50 in [5] (setting [13]) was 24 ± 6 nM; in data set [5] (setting [15]), 27 ± 7 nM; in data set [5] (setting [14]) it was 34 ± 7 nM; in [6] (setting [15]), 33 nM; in data set [6] (setting [14]), 15 nM; in [6] (± SD, read-out: Formula 2 compound EC50, reversal of Doxorubicin resistance), 25 ± 8 nM. For the same compound, the “In vitro anti-tumor activity of paclitaxel” value in data set [7] was “did not enhance”. For the same compound, the IC50 in data set [8] is 32000 nM; in data set [9] it was 12000 nM; in [10] (read-out: Cytostatic IC50, average value), 60000 nM; in data set [10] (read-out: Cytostatic IC50s, range over cell lines) it was 6000 to 170000 nM. In addition, the Cytotoxicity by itself entry in [10] (at doses up to 100 μM, all cell lines) is listed as “non-cytotoxic”. In addition, in [11], the Ki was determined as 39800 ± 5100 nM. The “Ki (CYP3A4) relative to EC50s for reversal of MDR” value in [11] (higher) is on record as “approximately 1000 fold”. In [12], the “Metabolism by P450 CYP2C8” value is reported as “not metabolized”.
